Where two headings read alike, the source gives them in different places.

Broadly, the inhibition is the relative decrease from the control value, in per cent.

The subject of assay [1] is Primary human pulmonary microvascular endothelial cells (HPMEC). The assay is described as follows: Neutrophil adhesion to endothelial cells. The format is cell-based. As to conditions: 10, 20 and 50 μM B2, TNF-α stimulated HPMEC (FIG. 11). The text has this: The number of adhered green-fluorescent labeled neutrophils per field of view normalized to the area covered by endothelial cells per field of view is shown. Three concentrations of B2 are shown next to the solvent (DMSO) control. An exemplary experiment out of three is shown.
Neutrophil adhesion to endothelial cells: Primary human pulmonary microvascular endothelial cells (HPMEC) were purchased from Promocell and maintained in endothelial cell media from Promocell as per the company's protocol. The endothelial cells were plated in flat bottom 96 well plastic plates at a concentration of 50,000 cells/well. After 24 h the endothelial cells were stimulated overnight by TNF-α (100 ng/ml) and the inhibitor. Neutrophils were isolated from whole blood using MACSxpress Neutrophil isolation kit. […] Samples were analyzed in triplicates and 3 fields of view were imaged per well. Cells per field of view were quantified using FiJi software.
To investigate the adhesion of neutrophils to endothelial cells, human primary neutrophils, were fluorescently labeled with 1 μM CellTracker dye and resuspended in HBS solution prior to addition of B2 or DMSO. Green fluorescent adherent cells were counted, the area covered by endothelial cell was measured, and the number of neutrophils adherent to endothelial cells normalized for the area covered by endothelial cells.

For assay [2], the system named is primary peripheral blood monocytes. Description: Macrophage/monocyte migration to CCL2 (Boyden chamber/Transwell). As to conditions: 50 μM B2, towards CCL2 (FIG. 10). The class given is cell-based, human. As for the experimental part:
Dark grey: dimethylsulfoxide (DMSO) only; light grey: 50 μM B2. An exemplary experiment out of four is shown.
Macrophage/monocyte migration: Monocytes/macrophages were purified from buffy coats, first by density gradient centrifugation on ficoll to isolate total PBMC, and then by negative selection using the monocyte purification kit from Miltenyi Inc. as per manufacturer's instructions. Monocytes were then resuspended in tissue culture media at a concentration of 5×10^6 per ml. Monocyte migration to CCL2 was then measured using a Boyden chamber assay fitted with a membrane with […] pores. This was performed as follows: 200 μl of cells were pipetted into the upper chamber in the presence or absence of B2 or DMSO control. In the lower chamber 1 ml of the chemokine solution at concentrations of 10 ng/mL and 100 ng/mL, together with the same amount of B2 or DMSO as in the upper chamber was added. Cells were then left to migrate for 6 hours and the number of cells migrating into the lower chamber was ascertained by standard cell counting.
To investigate the inhibition of macrophage/monocyte migration by B2, primary peripheral blood monocytes were isolated from buffy coat and subsequent negative selection. […] Migrated cells were quantified after 5 hours in the presence of carrier (DMSO) only or 50 μM B2 in DMSO (FIG. 10).

The test system of the next assay is SWAP-70. The assay is described as follows: FACS-FRET of SWAP-70 dimerization in living cells. The class given is cell-based. As for the experimental part:
B2 was added to the cells 15 minutes prior to stimulation.
FACS-FRET of SWAP-70 in living cells: The method was in line with that previously described by Betaneli and Jessberger (2020). Briefly, two versions of SWAP-70, differently tagged with the fluorescent dyes Cerulean and Venus, were stably expressed in 293T cells. Upon activation of the cells, e.g., by sodium vanadate, SWAP-70 dimerizes. Thereby the two fluorophores associate and generate a fluorescence resonance energy transfer (FRET) signal, which is measured by FACS. FACS-FRET allows to analyze large numbers of cells simultaneously.
Two versions of SWAP-70, differently tagged with the fluorescent dyes Cerulean and Venus, were stably expressed in 293T cells. Upon activation of the cells, e.g., by sodium vanadate, SWAP-70 dimerizes. Thereby the two fluorophores associate and generate a fluorescence resonance energy transfer (FRET) signal, which is measured by FACS. FACS-FRET allows to analyze large numbers of cells simultaneously. […] B2 was added to the cells 15 minutes prior to stimulation.

For assay [3], the system named is Human primary coronary artery endothelial cells (HCAEC). Description: Coronary artery endothelial cell cytokine release (TNFα triggered, cytokine array). The class given is cell-based. As to conditions: 50 μM B2, TNFα. As for the experimental part:
Human primary coronary artery endothelial cells (HCAEC) were triggered to produce cytokines by the pro-inflammatory cytokine TNFα. The levels of 105 cytokines in the cell culture supernatant were measured by the R&D Systems Human XL cytokine array and a fluorescence-based photometric read-out. The table lists cytokines whose production was reduced by >50% (left) or 20 to 50% upon treatment with 50 μM B2 (right).

Regarding `Cc1onc(-c2ccccc2Cl)c1C(=O)Nc1nc2ccc([N+](=O)[O-])cc2s1` [B2, 3-(2-chlorophenyl)-5-methyl-N-(6-nitrobenzo[d]thiazol-2-yl)isoxazole-4-carboxamide], in assay [1], the “neutrophil adhesion to endothelial cells” value was “inhibition of neutrophil adhesion to endothelial cells”. Moreover, in assay [2], the macrophage migration entry is on record as “reduces macrophage migration”. In addition, the “FACS-FRET signal, SWAP-70 dimerization at earlier time intervals” value in the assay with SWAP-70 (50 μM B2, 5-10 and 10-15 minutes after stimulation, B2 added 15 minutes prior) is recorded as “inhibition by 50 μM B2 at earlier time intervals”. Moreover, in the assay with SWAP-70 (50, 25 and 10 μM B2, 20 minutes after stimulation, B2 added 15 minutes prior), the “FACS-FRET signal (FRET efficiency), SWAP-70 dimerization” value is on record as “inhibition of the FACS-FRET signal”. Moreover, in the assay on SWAP-70 (293T cells, sodium vanadate activation), the “SWAP-70 dimerization in living cells” value is “inhibits SWAP-70 dimerization in living cells”. The inhibition at 50 µM was 20 to 50% in assay [3] (read-out: CCL5 production, inhibition); 20 to 50% in assay [3] (read-out: CXCL1 production, inhibition); > 50% in assay [3] (read-out: CXCL5 production, inhibition); > 50% in assay [3] (read-out: CXCL10 production, inhibition); > 50% in assay [3] (read-out: CXCL11 production, inhibition); 20 to 50% in assay [3] (read-out: GM-CSF production, inhibition). The inhibition at 50 µM was 20 to 50% in assay [3] (read-out: ICAM1 production, inhibition); > 50% in assay [3] (read-out: IGFBP2 production, inhibition); > 50% in assay [3] (read-out: Thrombospondin-1 production, inhibition); > 50% in assay [3] (read-out: VCAM1 production, inhibition).

The values are drawn from patent US20260337187A1, “COMPOUNDS FOR TREATMENT OF INFLAMMATORY PROCESSES” (THORNE LIMITED, priority 2022, published 2026).
